{
  "source": "paper PMC6260619",
  "about": "“Selective Cytotoxicity of Goniothalamin against Hepatoblastoma HepG2 Cells” (Molecules, 2011)",
  "type_in_all_cases": "cell-based, human",
  "key": {"Chang cells [1]": {"test_system": "Chang cells", "assay": "MTT cytotoxicity assay, Chang", "details": "Homo sapiens, read-out: IC50 from MTT", "description": "(§1) HepG2 and Chang cells were plated at 1 × 10^4 cells/well by adding 200 μL of a 5 × 10^4 cells/mL suspension to each well of a 96-well tissue culture plate. The plate was incubated for a sufficient time to assure attachment and 40% to 60% confluency. […] The last row was left as an untreated control. The plates were incubated at 37 °C, 5% CO2, for 24, 48 and 72 hours, respectively. After incubation with compounds, the media was aspirated off and replaced with fresh media. Then, MTT solution (20 μL) for a total volume of 200 μL was added in every well and incubated for 4 to 6 hours at 37 °C with 5% CO2. After that, MTT-containing medium was removed gently and replaced with DMSO (200 μL per well) to mix the formazan crystals until dissolved. The plates were read on microtiter plate reader at 570 nm. For each compound tested, the IC50 (concentration of drug needed to inhibit cell growth by 50%) is generated from the dose-response curves for each cell line."}, "HepG2 cells [2]": {"test_system": "HepG2 cells", "assay": "Cell cycle PI analysis by flow cytometry, HepG2", "description": "The ability of a substance to affect specific phases of the cell cycle may provide clues as to its mechanism(s) of action. To determine the effects of goniothalamin on the cell cycle, HepG2 cells were treated with IC50 levels of goniothalamin (determined from the MTT assay) for 24, 48 and 72 hours, respectively. The cells were stained with PI and the DNA contents analyzed by flow cytometry.\n(§2) The treated cells were trypsinized and washed with PBS. After centrifugation, the supernatant was removed. Then, 1 × 10^6 cells were harvested and fixed in ice-cold ethanol (70%). The fixed cells were centrifuged at high speed (180 × g) for 10 minutes to adequately pellet down the cells that were suspended in the ethanol. The pellet was washed by the ice-cold PBS and then centrifuged again at 180 × g for 10 minutes. The final pellet was resuspended with 1 mL of RNase and incubated at 37 °C for 30 minutes. At the end of incubation, DNA binding dye PI (1 mg/mL) was added to give a final concentration of 50 µg/mL. The mixture was incubated at room temperature for 10 min in the dark. Data acquisition and analysis were performed in by flow cytometry FACS Calibur flow cytometer (Becton Dickinson, Franklin Lakes, NJ, USA) using CellQuest 3.3 software."}, "HepG2 cells [3]": {"test_system": "HepG2 cells", "assay": "MTT cytotoxicity assay, HepG2", "details": "Homo sapiens, read-out: IC50 from MTT", "description": "as §1"}, "Chang cells [4]": {"test_system": "Chang cells", "assay": "Cell cycle PI analysis by flow cytometry, Chang", "description": "The effect of goniothalamin on the cell cycle distribution of non-malignant Chang cells was also assessed. […] Accordingly, goniothalamin induced a marked apoptosis in a time-dependent manner at IC50 concentrations. As expected, the increase in the apoptotic population was associated with a concomitant enlargement of the pre-phase population, as observed in cell cycle analysis.\nas §2"}, "[5]": {"details": "HepG2, 24h, at IC50 (goniothalamin 9.2 µM; doxorubicin 2.2 µM)"}, "[6]": {"details": "HepG2, 48h, at IC50 (goniothalamin 8.3 µM; doxorubicin 4.3 µM)"}, "[7]": {"details": "HepG2, 72h, at IC50 (goniothalamin 4.6 µM; doxorubicin […])"}, "[8]": {"details": "24h, at IC50 (goniothalamin 79.10 µM; doxorubicin 0.83 µM)"}, "[9]": {"details": "48h, at IC50 (goniothalamin 63.75 µM; doxorubicin 0.41 µM)"}, "[10]": {"details": "72h, at IC50 (goniothalamin 35.01 µM; doxorubicin 0.28 µM)"}},
  "note": "Like-named read-outs stand apart in the source and are kept apart here.",
  "data": [
    {"smiles": "COc1cccc2c1C(=O)c1c(O)c3c(c(O)c1C2=O)C[C@@](O)(C(=O)CO)C[C@@H]3O[C@H]1C[C@H](N)[C@H](O)[C@H](C)O1", "note": "[Doxorubicin, reference compound]", "values": [
      {"measurement": "IC50", "setting": "Chang cells [1]; 24 h", "result": 830, "unit": "nM"},
      {"measurement": "IC50", "setting": "Chang cells [1]; 48 h", "result": 410, "unit": "nM"},
      {"measurement": "IC50", "setting": "Chang cells [1]; 72 h", "result": 280, "unit": "nM"},
      {"measurement": "G0/G1", "setting": "HepG2 cells [2]; [5]", "result": "76.46 ± 3.80", "unit": "%"},
      {"measurement": "G2+M", "setting": "HepG2 cells [2]; [5]", "result": "11.64 ± 3.02", "unit": "%"},
      {"measurement": "S", "setting": "HepG2 cells [2]; [5]", "result": "8.54 ± 0.38", "unit": "%"},
      {"measurement": "SubG0/G1", "setting": "HepG2 cells [2]; [5]", "result": "3.36 ± 1.02", "unit": "%"},
      {"measurement": "G0/G1", "setting": "HepG2 cells [2]; [6]", "result": "65.17 ± 12.80", "unit": "%"},
      {"measurement": "S", "setting": "HepG2 cells [2]; [6]", "result": "15.15 ± 10.96", "unit": "%"},
      {"measurement": "SubG0/G1", "setting": "HepG2 cells [2]; [6]", "result": "5.14 ± 2.53", "unit": "%"},
      {"measurement": "G0/G1", "setting": "HepG2 cells [2]; [7]", "result": "60.64 ± 0.79", "unit": "%"},
      {"measurement": "G2+M", "setting": "HepG2 cells [2]; [7]", "result": "2.66 ± 0.37", "unit": "%"},
      {"measurement": "S", "setting": "HepG2 cells [2]; [7]", "result": "5.91 ± 0.15", "unit": "%"},
      {"measurement": "SubG0/G1", "setting": "HepG2 cells [2]; [7]", "result": "30.79 ± 0.57", "unit": "%"},
      {"measurement": "IC50", "setting": "HepG2 cells [3]; HepG2, 24 h", "result": 2200, "unit": "nM"},
      {"measurement": "IC50", "setting": "HepG2 cells [3]; HepG2, 48 h", "result": 4300, "unit": "nM"},
      {"measurement": "IC50", "setting": "HepG2 cells [3]; HepG2, 72 h", "result": 1060, "unit": "nM"},
      {"measurement": "G0/G1", "setting": "Chang cells [4]; [8]", "result": "50.84 ± 6.03", "unit": "%"},
      {"measurement": "G2+M", "setting": "Chang cells [4]; [8]", "result": "16.36 ± 1.28", "unit": "%"},
      {"measurement": "S", "setting": "Chang cells [4]; [8]", "result": "22.09 ± 0.03", "unit": "%"},
      {"measurement": "SubG0/G1", "setting": "Chang cells [4]; [8]", "result": "10.71 ± 7.28", "unit": "%"},
      {"measurement": "G0/G1", "setting": "Chang cells [4]; [9]", "result": "62.43 ± 9.80", "unit": "%"},
      {"measurement": "G2+M", "setting": "Chang cells [4]; [9]", "result": "10.37 ± 0.21", "unit": "%"},
      {"measurement": "S", "setting": "Chang cells [4]; [9]", "result": "15.31 ± 3.10", "unit": "%"},
      {"measurement": "SubG0/G1", "setting": "Chang cells [4]; [9]", "result": "11.89 ± 6.49", "unit": "%"},
      {"measurement": "G0/G1", "setting": "Chang cells [4]; [10]", "result": "54.12 ± 1.52", "unit": "%"},
      {"measurement": "G2+M", "setting": "Chang cells [4]; [10]", "result": "8.63 ± 2.17", "unit": "%"},
      {"measurement": "S", "setting": "Chang cells [4]; [10]", "result": "15.19 ± 2.83", "unit": "%"},
      {"measurement": "SubG0/G1", "setting": "Chang cells [4]; [10]", "result": "22.06 ± 5.17", "unit": "%"}
    ]}
  ]
}
